{"source": "patent US20030105595A1", "about": "“Chi square tests for gene expression” (priority 2001, published 2003)", "test_in_all_cases": "multi-sample expression analysis, band intensity", "format_in_all_cases": "in vivo", "details_in_all_cases": "Pooled", "key": {"[1]": {"tested_on": "band b1i0_63.7", "excerpt": "(§1) To practice the invention, one skilled in the art obtains a source of biological samples, as well as expression information about the biological samples, i.e., expression information relative to one or more genes or polypeptides encoded therein. Data is collected for a particular phenotype appearing within a given population under study, whereby expression of that phenotype is to be determined within the biological sample under study. The phenotype is correlated to a specific genotype, which is then represented as a band with a given intentity, thus indicative of gene expression levels, and is then compared to control samples. Alternatively, the response of a gene to dosage with one or more drugs is determined by band intensity. The standard deviation from the mean (StdDev) is calculated for the control samples, and is fit to functional form in the following equation: […]\n(§2) A multi-sample expression analysis was run using the program described in Example 1. For each drug run, only runs for genes producing bands with a p-value<10^−5 in at least 2 of the following 3 comparisons were selected: low dose versus vehicle, high dose versus vehicle and low dose versus high dose. […] Since clusters found using all 13K bands included some of the best 2K bands, it was concluded that no essential signal was lost (see FIGS. 3 and 4). […] A comparison using the same analytic tests on only the best 2K bands. It can be seen that the Chi Square metric provides a better distinction between low and high doses than the correlation metric, which is not able to distinguish between the low dose and the high dose (see FIG. 6). The low-dose/high dose statistical variation is more pronounced when only the best 2K bands are selected."}, "[2]": {"tested_on": "band b1i0_69.4", "excerpt": "as §1, §2"}, "[3]": {"tested_on": "band b1i0_57.4", "excerpt": "as §1, §2"}, "[4]": {"tested_on": "band b1i0_51.7", "excerpt": "as §1, §2"}, "[5]": {"tested_on": "band b1i0_53.0", "excerpt": "as §1, §2"}, "[6]": {"tested_on": "band b1i0_54.5", "excerpt": "as §1, §2"}, "[7]": {"tested_on": "band b1i0_62.5", "excerpt": "as §1, §2"}, "[8]": {"tested_on": "band b1i0_60.7", "excerpt": "as §1, §2"}}}
{"substance": "Dichlorobenzene", "values": [{"measurement": "band intensity b1i0_63.7", "setting": "[1]; High dose, 1d", "value": 129}, {"measurement": "band intensity b1i0_63.7", "setting": "[1]; High dose, 3d", "value": 5.698}, {"measurement": "band intensity b1i0_63.7", "setting": "[1]; High dose, 7d", "value": 224.3}, {"measurement": "band intensity b1i0_63.7", "setting": "[1]; High dose, 14d", "value": 157.7}, {"measurement": "band intensity b1i0_63.7", "setting": "[1]; Low dose, 1d", "value": 166.2}, {"measurement": "band intensity b1i0_63.7", "setting": "[1]; Low dose, 3d", "value": 24.94}, {"measurement": "band intensity b1i0_63.7", "setting": "[1]; Low dose, 7d", "value": 258.8}, {"measurement": "band intensity b1i0_63.7", "setting": "[1]; Low dose, 14d", "value": 152.1}, {"measurement": "band intensity b1i0_69.4", "setting": "[2]; High dose, 1d", "value": 295.5}, {"measurement": "band intensity b1i0_69.4", "setting": "[2]; High dose, 3d", "value": 393.2}, {"measurement": "band intensity b1i0_69.4", "setting": "[2]; High dose, 7d", "value": 261.7}, {"measurement": "band intensity b1i0_69.4", "setting": "[2]; High dose, 14d", "value": 311.3}, {"measurement": "band intensity b1i0_69.4", "setting": "[2]; Low dose, 1d", "value": 130.6}, {"measurement": "band intensity b1i0_69.4", "setting": "[2]; Low dose, 3d", "value": 334.6}, {"measurement": "band intensity b1i0_69.4", "setting": "[2]; Low dose, 7d", "value": 304.3}, {"measurement": "band intensity b1i0_69.4", "setting": "[2]; Low dose, 14d", "value": 333.2913}, {"measurement": "band intensity b1i0_57.4", "setting": "[3]; High dose, 1d", "value": 1260}, {"measurement": "band intensity b1i0_57.4", "setting": "[3]; High dose, 3d", "value": 1064}, {"measurement": "band intensity b1i0_57.4", "setting": "[3]; High dose, 7d", "value": 1287}, {"measurement": "band intensity b1i0_57.4", "setting": "[3]; High dose, 14d", "value": 1142}, {"measurement": "band intensity b1i0_57.4", "setting": "[3]; Low dose, 1d", "value": 1301}, {"measurement": "band intensity b1i0_57.4", "setting": "[3]; Low dose, 3d", "value": 1352}, {"measurement": "band intensity b1i0_57.4", "setting": "[3]; Low dose, 7d", "value": 1298}, {"measurement": "band intensity b1i0_57.4", "setting": "[3]; Low dose, 14d", "value": 1338}, {"measurement": "band intensity b1i0_51.7", "setting": "[4]; High dose, 1d", "value": 27.84}, {"measurement": "band intensity b1i0_51.7", "setting": "[4]; High dose, 3d", "value": 10.75}, {"measurement": "band intensity b1i0_51.7", "setting": "[4]; High dose, 7d", "value": 16.63}, {"measurement": "band intensity b1i0_51.7", "setting": "[4]; High dose, 14d", "value": 21.77}, {"measurement": "band intensity b1i0_51.7", "setting": "[4]; Low dose, 1d", "value": 28.93}, {"measurement": "band intensity b1i0_51.7", "setting": "[4]; Low dose, 3d", "value": 26.06}, {"measurement": "band intensity b1i0_51.7", "setting": "[4]; Low dose, 7d", "value": 16.57}, {"measurement": "band intensity b1i0_51.7", "setting": "[4]; Low dose, 14d", "value": 23.43}, {"measurement": "band intensity b1i0_53.0", "setting": "[5]; High dose, 1d", "value": 103.4}, {"measurement": "band intensity b1i0_53.0", "setting": "[5]; High dose, 3d", "value": 48.52}, {"measurement": "band intensity b1i0_53.0", "setting": "[5]; High dose, 7d", "value": 99.66}, {"measurement": "band intensity b1i0_53.0", "setting": "[5]; High dose, 14d", "value": 95.42}, {"measurement": "band intensity b1i0_53.0", "setting": "[5]; Low dose, 1d", "value": 127.1}, {"measurement": "band intensity b1i0_53.0", "setting": "[5]; Low dose, 3d", "value": 71.53}, {"measurement": "band intensity b1i0_53.0", "setting": "[5]; Low dose, 7d", "value": 113.8}, {"measurement": "band intensity b1i0_53.0", "setting": "[5]; Low dose, 14d", "value": 116.4}, {"measurement": "band intensity b1i0_54.5", "setting": "[6]; High dose, 1d", "value": 91.99}, {"measurement": "band intensity b1i0_54.5", "setting": "[6]; High dose, 3d", "value": 89.82}, {"measurement": "band intensity b1i0_54.5", "setting": "[6]; High dose, 7d", "value": 80.92}, {"measurement": "band intensity b1i0_54.5", "setting": "[6]; High dose, 14d", "value": 84.91}, {"measurement": "band intensity b1i0_54.5", "setting": "[6]; Low dose, 1d", "value": 88.39}, {"measurement": "band intensity b1i0_54.5", "setting": "[6]; Low dose, 3d", "value": 128.4}, {"measurement": "band intensity b1i0_54.5", "setting": "[6]; Low dose, 7d", "value": 88.11}, {"measurement": "band intensity b1i0_54.5", "setting": "[6]; Low dose, 14d", "value": 101.4}, {"measurement": "band intensity b1i0_62.5", "setting": "[7]; High dose, 1d", "value": 68.45}, {"measurement": "band intensity b1i0_62.5", "setting": "[7]; High dose, 3d", "value": 97.82}, {"measurement": "band intensity b1i0_62.5", "setting": "[7]; High dose, 7d", "value": 76.86}, {"measurement": "band intensity b1i0_62.5", "setting": "[7]; High dose, 14d", "value": 64.49}, {"measurement": "band intensity b1i0_62.5", "setting": "[7]; Low dose, 1d", "value": 73.54}, {"measurement": "band intensity b1i0_62.5", "setting": "[7]; Low dose, 3d", "value": 76.31}, {"measurement": "band intensity b1i0_62.5", "setting": "[7]; Low dose, 7d", "value": 88.91}, {"measurement": "band intensity b1i0_62.5", "setting": "[7]; Low dose, 14d", "value": 68.64}, {"measurement": "band intensity b1i0_60.7", "setting": "[8]; High dose, 1d", "value": 79.94}, {"measurement": "band intensity b1i0_60.7", "setting": "[8]; High dose, 3d", "value": 62.13}, {"measurement": "band intensity b1i0_60.7", "setting": "[8]; High dose, 7d", "value": 77.87}, {"measurement": "band intensity b1i0_60.7", "setting": "[8]; High dose, 14d", "value": 82.42}, {"measurement": "band intensity b1i0_60.7", "setting": "[8]; Low dose, 1d", "value": 95.98}, {"measurement": "band intensity b1i0_60.7", "setting": "[8]; Low dose, 3d", "value": 58.61}, {"measurement": "band intensity b1i0_60.7", "setting": "[8]; Low dose, 7d", "value": 74.81}, {"measurement": "band intensity b1i0_60.7", "setting": "[8]; Low dose, 14d", "value": 94.46}]}
